# Test results taken from the supplement of paper PMC11208160.
# Experiment: recombinant UMI read abundance after kanamycin selection (control-corrected) (log10(CPM+1)); higher = more efficient recombination; extreme values may be limits of the assay; sequences stand for … in AGTGCAGAGAAAATCGGCCAGTTTTCTCTGCCTGCAGTCCGCATGCCGTGGGACCCCTTGGGTTCTAACCTGTTGCCTAGATTTATGCAGCGGACTGCCTTTCTCCCAAAGTGATAAACCGG…AGGTTGGTTTCACT; site = the 11-nt donor
# Summary of the method: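 In Escherichia coli, a pool of donor and donor-binding-loop pairs, each with a 12-nt UMI, was tested for the IS621 bridge recombinase. Plating was on IPTG (0.07 mM) plus kanamycin, or without selection, in two replicates. Recombinant UMIs were amplified by PCR across the donor–target junction and sequenced, and counts were reported as log10(CPM+1) after averaging and control-derived scaling.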
# 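Further: IS621 bridge recombinase in Escherichia coli cells against a fixed T5 target plasmid.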
row,Sequence,recombinant UMI read abundance (log10)
1,TAAAGAGCATGGACCGGTTTTCCCGGTAATCCGTATTTGGG (site TAACGAGCTCC),0.0368
2,TAAAGAGCATGGACCGGTTTTCCCGGTAATCCGTATTTGGG (site TAAGGAGCTCC),0.0278
3,TAAAGAGCATGGACCGGTTTTCCCGGTAATCCGTATTTGGG (site TAATGAGCTCC),0.00709
4,TAAAGCTCATGGACCGGTTTTCCCGGTAATCCGTATTTGTT (site TAAAGCTCTAA),1.48
5,TAAAGTCCATGGACCGGTTTTCCCGGTAATCCGTATTTGGA (site TAAAGTCCTTA),0.0112
6,TAAAGTCCATGGACCGGTTTTCCCGGTAATCCGTATTTGGA (site TAAAGTCCTTC),0.231
7,TAAAGTCCATGGACCGGTTTTCCCGGTAATCCGTATTTGGA (site TAAAGTCCTTG),0
8,TAAAGTCCATGGACCGGTTTTCCCGGTAATCCGTATTTGGA (site TAAAGTCCTTT),0.978
9,TAAAGTCCATGGACCGGTTTTCCCGGTAATCCGTATTTGTC (site TAAAGTCCTAA),0.0955
10,TAAAGTCCATGGACCGGTTTTCCCGGTAATCCGTATTTGTC (site TAAAGTCCTCA),0.00821
11,TAAAGTCCATGGACCGGTTTTCCCGGTAATCCGTATTTGTC (site TAAAGTCCTGA),0.327
12,TAAAGTCCATGGACCGGTTTTCCCGGTAATCCGTATTTGTC (site TAAAGTCCTTA),0.00692
13,TAAAGTCCATGGACCGGTTTTCCCGGTAATCCGTATTTGTT (site TAAAGTCCTAA),0.293
14,TAAAGTCCATGGACCGGTTTTCCCGGTAATCCGTATTTGTT (site TAAAGTCCTCA),0.0132
15,TAAAGTCCATGGACCGGTTTTCCCGGTAATCCGTATTTGTT (site TAAAGTCCTGA),0
16,TAAAGTCCATGGACCGGTTTTCCCGGTAATCCGTATTTGTT (site TAAAGTCCTTA),0
17,TAAAGTTCATGGACCGGTTTTCCCGGTAATCCGTATTTGTA (site TAAAGTACTTA),0.0179
18,TAAAGTTCATGGACCGGTTTTCCCGGTAATCCGTATTTGTA (site TAAAGTCCTTA),0.153
19,TAAAGTTCATGGACCGGTTTTCCCGGTAATCCGTATTTGTA (site TAAAGTGCTTA),0.00586
20,TAAAGTTCATGGACCGGTTTTCCCGGTAATCCGTATTTGTA (site TAAAGTTCTTA),1.59
21,TAAATAACATGGACCGGTTTTCCCGGTAATCCGTATTTGCT (site TAAATAACTAG),0
22,TAAATACCATGGACCGGTTTTCCCGGTAATCCGTATTTGCG (site TAAATACCTCG),0
23,TAAATGCCATGGACCGGTTTTCCCGGTAATCCGTATTTGGA (site TAAATGCCTTC),0.2

row,Sequence,recombinant UMI read abundance (log10)
1,TAACACGCATGGACCGGTTTTCCCGGTAATCCGTATTTGAG (site TAACACGCTCT),1.48
2,TAACAGACATGGACCGGTTTTCCCGGTAATCCGTATTTGGT (site TAACAGACTAC),0.99
3,TAACATTCATGGACCGGTTTTCCCGGTAATCCGTATTTGGG (site TAACATTCTCC),0.809
4,TAACCGGCATGGACCGGTTTTCCCGGTAATCCGTATTTGGT (site TAACCGGCTAC),0.35
5,TAACGAACATGGACCGGTTTTCCCGGTAATCCGTATTTGAC (site TAACGAACTGT),2.86
6,TAACGGCCATGGACCGGTTTTCCCGGTAATCCGTATTTGAA (site TAACGGCCTTT),0.00367
7,TAACTACCATGGACCGGTTTTCCCGGTAATCCGTATTTGTT (site TAACTACCTAA),0.00587
8,TAACTAGCATGGACCGGTTTTCCCGGTAATCCGTATTTGAA (site TAACTAGCTTT),1.57
9,TAACTAGCATGGACCGGTTTTCCCGGTAATCCGTATTTGAA (site TACCTAGCTTT),0.34
10,TAACTAGCATGGACCGGTTTTCCCGGTAATCCGTATTTGAA (site TAGCTAGCTTT),0.00713
11,TAACTAGCATGGACCGGTTTTCCCGGTAATCCGTATTTGAA (site TATCTAGCTTT),0
12,TAACTTACATGGACCGGTTTTCCCGGTAATCCGTATTTGAT (site TAACTTACTAT),0.731
13,TAAGATTCATGGACCGGTTTTCCCGGTAATCCGTATTTGTT (site AAAGATTCTAA),0
14,TAAGATTCATGGACCGGTTTTCCCGGTAATCCGTATTTGTT (site CAAGATTCTAA),1.43
15,TAAGATTCATGGACCGGTTTTCCCGGTAATCCGTATTTGTT (site GAAGATTCTAA),0
16,TAAGATTCATGGACCGGTTTTCCCGGTAATCCGTATTTGTT (site TAAGATTCTAA),2.02
17,TAAGCAGCATGGACCGGTTTTCCCGGTAATCCGTATTTGGC (site TAAGCAGCTGC),2.92
18,TAAGCTGCATGGACCGGTTTTCCCGGTAATCCGTATTTGTG (site TAAGCTGCTCA),0.65
19,TAAGCTGCATGGACCGGTTTTCCCGGTAATCCGTATTTGTG (site TCAGCTGCTCA),0.00238
20,TAAGCTGCATGGACCGGTTTTCCCGGTAATCCGTATTTGTG (site TGAGCTGCTCA),0.0127
21,TAAGCTGCATGGACCGGTTTTCCCGGTAATCCGTATTTGTG (site TTAGCTGCTCA),0.00901
22,TAAGGGCCATGGACCGGTTTTCCCGGTAATCCGTATTTGAG (site TAAGGGCCTCT),0.221
23,TAAGTATCATGGACCGGTTTTCCCGGTAATCCGTATTTGAC (site CTAGTATCTGT),1.88

row,Sequence,recombinant UMI read abundance (log10)
1,TAAGTATCATGGACCGGTTTTCCCGGTAATCCGTATTTGAC (site TAAGTATCTGT),3.03
2,TAATCTACATGGACCGGTTTTCCCGGTAATCCGTATTTGAG (site TAATCTACTCT),0.521
3,TAATGAACATGGACCGGTTTTCCCGGTAATCCGTATTTGGG (site TAATGAACTCC),0.00333
4,TAATGAACATGGACCGGTTTTCCCGGTAATCCGTATTTGGG (site TAATGACCTCC),0.0112
5,TAATGAACATGGACCGGTTTTCCCGGTAATCCGTATTTGGG (site TAATGAGCTCC),0.0277
6,TAATGAACATGGACCGGTTTTCCCGGTAATCCGTATTTGGG (site TAATGATCTCC),0.399
7,TAATGAGCATGGACCGGTTTTCCCGGTAATCCGTATTTGGA (site TAATGAGCTAC),0.0122
8,TAATGAGCATGGACCGGTTTTCCCGGTAATCCGTATTTGGA (site TAATGAGCTCC),0.0122
9,TAATGAGCATGGACCGGTTTTCCCGGTAATCCGTATTTGGA (site TAATGAGCTGC),0
10,TAATGAGCATGGACCGGTTTTCCCGGTAATCCGTATTTGGA (site TAATGAGCTTC),0.729
11,TAATGCGCATGGACCGGTTTTCCCGGTAATCCGTATTTGGG (site TAATGAGCTCC),0.0175
12,TAATGCGCATGGACCGGTTTTCCCGGTAATCCGTATTTGGG (site TAATGCGCTCC),0
13,TAATGCGCATGGACCGGTTTTCCCGGTAATCCGTATTTGGG (site TAATGGGCTCC),0.0249
14,TAATGCGCATGGACCGGTTTTCCCGGTAATCCGTATTTGGG (site TAATGTGCTCC),0.00404
15,TAATGGCCATGGACCGGTTTTCCCGGTAATCCGTATTTGCA (site AAATGGCCTTG),0.00563
16,TAATGGCCATGGACCGGTTTTCCCGGTAATCCGTATTTGCA (site CAATGGCCTTG),0.089
17,TAATGGCCATGGACCGGTTTTCCCGGTAATCCGTATTTGCA (site GAATGGCCTTG),0.00525
18,TAATGGCCATGGACCGGTTTTCCCGGTAATCCGTATTTGCA (site TAATGGCCTTG),0.0063
19,TAATTCGCATGGACCGGTTTTCCCGGTAATCCGTATTTGTG (site TAATTCGCTCA),0.0276
20,TACACCTCATGGACCGGTTTTCCCGGTAATCCGTATTTGAA (site TACACCTCTTT),0.804
21,TACACCTCATGGACCGGTTTTCCCGGTAATCCGTATTTGCA (site TACACCTCTTG),2.35
22,TACAGCCCATGGACCGGTTTTCCCGGTAATCCGTATTTGGA (site TACAGCCCTTC),0.0282
